Measured values: US11708348B2, “Protease inhibitors for treatment of coronavirus infections” (The Scripps Research Institute, priority 2021, dated 2023)
Like-named read-outs stand apart in the source and are kept apart here.

Tested on: SARS-CoV-2 strain USA-WA1/2020
Test: microbe, parasite or virus in culture
Assay type: cell-based
Settings: HeLa-ACE2 cells, SARS-CoV-2 infection, 24 h, read-out: EC50, uM (Hela)
[1] = Severe acute respiratory syndrome coronavirus 2, HeLa-ACE2, 24 h
[2] = Severe acute respiratory syndrome coronavirus 2, HeLa-ACE2, 24 h, class symbols

Compound `O=C(Nc1ccccc1F)C(=O)N[C@@H](Cc1ccc(F)c(F)c1)C(=O)N[C@@H](C[C@@H]1CCNC1=O)C(=O)COC(F)(F)F` [Compound 589, N1-((S)-3-(3,4-difluorophenyl)-1-oxo-1-(((S)-3-oxo-1-((S)-2-oxopyrrolidin-3-yl)-4-(trifluoromethoxy)butan-2-yl)amino)propan-2-yl)-N2-(2-fluorophenyl)oxalamide] has an EC50 [1] of 0.05 to 0.2 µM.

`COC[C@H](Nc1ccccc1F)C(=O)N[C@@H](CC(C)C)C(=O)N[C@@H](C[C@@H]1CCNC1=O)C(=O)COC(F)(F)F` [Compound 236, (S)-2-((S)-2-((2-fluorophenyl)amino)-3-methoxypropanamido)-4-methyl-N-((S)-3-oxo-1-((S)-2-oxopyrrolidin-3-yl)-4-(trifluoromethoxy)butan-2-yl)pentanamide] showed an EC50 [2] of under 0.05 µM.

Compound `CC[C@@H]1C[C@]1(NC(=O)c1cc2cc(F)ccc2[nH]1)C(=O)N[C@@H](C[C@@H]1CCNC1=O)C(=O)COC(F)(F)F` [Compound 261, N-((1R,2R)-2-ethyl-1-(((S)-3-oxo-1-((S)-2-oxopyrrolidin-3-yl)-4-(trifluoromethoxy)butan-2-yl)carbamoyl)cyclopropyl)-5-fluoro-1H-indole-2-carboxamide] has an EC50 [2] of 0.5 to 1 µM.

Compound `O=C1NCC[C@H]1C[C@H](NC(=O)[C@@H]1CC2(CC2)CN1C(=O)C(F)(F)c1ccccc1)C(=O)COC(F)(F)F` [Compound 616, (S)-5-(2,2-difluoro-2-phenylacetyl)-N-((S)-3-oxo-1-((S)-2-oxopyrrolidin-3-yl)-4-(trifluoromethoxy)butan-2-yl)-5-azaspiro[2.4]heptane-6-carboxamide] has an EC50 [1] of under 0.05 µM.

For `CC(C)C[C@H](NC(=O)C(=O)NC1(C)CC1)C(=O)N[C@@H](C[C@@H]1CCNC1=O)C(=O)COc1c(F)c(F)cc(F)c1F` [Compound 99, N1-((S)-4-methyl-1-oxo-1-(((S)-3-oxo-1-((S)-2-oxopyrrolidin-3-yl)-4-(2,3,5,6-tetrafluorophenoxy)butan-2-yl)amino)pentan-2-yl)-N2-(1-methyl-cyclopropyl)oxalamide], the EC50 [2] was 0.05 to 0.2 µM.

`O=C1NCC[C@H]1C[C@H](NC(=O)[C@@H]1[C@H]2CCC[C@H]2CN1C(=O)c1noc2cc(Cl)ccc12)C(=O)COC(F)(F)F` [Compound 783, (1S,3aR,6aS)-2-(6-chlorobenzo[d]isoxazole-3-carbonyl)-N-((S)-3-oxo-1-((S)-2-oxopyrrolidin-3-yl)-4-(trifluoromethoxy)butan-2-yl)octahydrocyclopenta[c]pyrrole-1-carboxamide] showed an EC50 [1] of under 0.05 µM.

In the case of `CC[C@@H](O)C(=O)N1CC2(CC2)C[C@H]1C(=O)N[C@@H](C[C@@H]1CCNC1=O)C(=O)COC(F)(F)F` [Compound 371, (S)-5-((R)-2-hydroxybutanoyl)-N-((S)-3-oxo-1-((S)-2-oxopyrrolidin-3-yl)-4-(trifluoromethoxy)butan-2-yl)-5-azaspiro[2.4]heptane-6-carboxamide], the EC50 [2] is reported as 0.05 to 0.2 µM.

Work on `CC(C)[C@@H](O)C(=O)N1C[C@H]2[C@@H]([C@H]1C(=O)N[C@@H](C[C@@H]1CCNC1=O)C(=O)COC(F)(F)F)C2(C)C` [Compound 357, (1R,2S,5S)-3-((R)-2-hydroxy-3-methylbutanoyl)-6,6-dimethyl-N-((S)-3-oxo-1-((S)-2-oxopyrrolidin-3-yl)-4-(trifluoromethoxy)butan-2-yl)-3-azabicyclo-[3.1.0]hexane-2-carboxamide] yielded an EC50 [2] of 0.05 to 0.2 µM.

`CC(C)C[C@H](NC(=O)C(=O)N[C@@H]1CCCOC1)C(=O)N[C@@H](C[C@@H]1CCNC1=O)C(=O)COc1c(F)c(F)cc(F)c1F` [Compound 133, N1-((S)-4-methyl-1-oxo-1-(((S)-3-oxo-1-((S)-2-oxopyrrolidin-3-yl)-4-(2,3,5,6-tetrafluorophenoxy)butan-2-yl)amino)pentan-2-yl)-N2-((R)-tetrahydro-2H-pyran-3-yl)oxalamide] was tested, and the EC50 [2] was 0.05 to 0.2 µM.

Work on `CC(C)C[C@H](NC(=O)C(=O)NC1CC1)C(=O)N[C@@H](C[C@@H]1CCNC1=O)C(=O)COC(F)(F)F` [Compound 174, N1-cycl opropyl-N2-((S)-4-methyl-1-oxo-1-(((S)-3-oxo-1-((S)-2-oxopyrrolidin-3-yl)-4-(trifluoromethoxy)butan-2-yl)amino)pentan-2-yl)oxalamide] yielded an EC50 [2] of under 0.05 µM.

`[2H]C([2H])(CCCC)C(=O)N1CC2(CC2)C[C@H]1C(=O)N[C@@H](C[C@@H]1CCNC1=O)C(=O)COC(F)(F)F` [Compound 740, (S)-5-(hexanoyl-2,2-d2)-N-((S)-3-oxo-1-((S)-2-oxopyrrolidin-3-yl)-4-(trifluoromethoxy)butan-2-yl)-5-azaspiro[2.4]heptane-6-carboxamide] gave an EC50 [1] of under 0.05 µM.

`COc1ccccc1-c1cnc(C(=O)N[C@@H](CC(C)C)C(=O)N[C@@H](C[C@@H]2CCNC2=O)C(=O)COC(F)(F)F)[nH]1` [Compound 210, 5-(2-methoxyphenyl)-N-((S)-4-methyl-1-oxo-1-(((S)-3-oxo-1-((S)-2-oxopyrrolidin-3-yl)-4-(trifluoromethoxy)butan-2-yl)amino)pentan-2-yl)-1H-imidazole-2-carboxamide] showed an EC50 [2] of under 0.05 µM.

`CC(C)C[C@H](NC(=O)C(=O)NC1CCCCC1)C(=O)N[C@@H](C[C@@H]1CCNC1=O)C(=O)COc1c(F)c(F)cc(F)c1F` [Compound 69, N1-cyclohexyl-N2-((S)-4-methyl-1-oxo-1-(((S)-3-oxo-1-((S)-2-oxopyrrolidin-3-yl)-4-(2,3,5,6-tetra-fluorophenoxy)butan-2-yl)amino)pentan-2-yl)oxalamide] gave an EC50 [2] of 0.05 to 0.2 µM.

`CC(C)(C(=O)N1CC2(CC2)C[C@H]1C(=O)N[C@@H](C[C@@H]1CCNC1=O)C(=O)COC(F)(F)F)c1cccc(C(F)(F)F)c1` [Compound 456, (S)-5-(2-methyl-2-(3-(trifluoromethyl)-phenyl)propanoyl)-N-((S)-3-oxo-1-((S)-2-oxopyrrolidin-3-yl)-4-(trifluoromethoxy)butan-2-yl)-5-azaspiro[2.4]heptane-6-carboxamide] was tested, and the EC50 [1] was under 0.05 µM.

For `O=C1NCC[C@H]1C[C@H](NC(=O)[C@@H]1[C@H]2CCC[C@H]2CN1C(=O)[C@H](O)c1ccccc1F)C(=O)COC(F)(F)F` [Compound 409, (1S,3aR,6aS)-2-((R)-2-(2-fluorophenyl)-2-hydroxyacetyl)-N-((S)-3-oxo-1-((S)-2-oxopyrrolidin-3-yl)-4-(trifluoromethoxy)butan-2-yl)octahydrocyclo-penta[c]pyrrole-1-carboxamide], the EC50 [1] was under 0.05 µM.

For `O=C(N[C@@H](CC1CC1)C(=O)N[C@@H](C[C@@H]1CCNC1=O)C(=O)COC(F)(F)F)C(=O)NC1(C(F)(F)F)CC1` [Compound 512, N1-((S)-3-cyclopropyl-1-oxo-1-(((S)-3-oxo-1-((S)-2-oxopyrrolidin-3-yl)-4-(trifluoromethoxy)butan-2-yl)amino)propan-2-yl)-N2-(1-(trifluoromethyl)-cyclopropyl)-oxalamide], the EC50 [1] was 0.05 to 0.2 µM.

`Cc1cc(C(=O)N[C@@H](CC(C)C)C(=O)N[C@@H](C[C@@H]2CCNC2=O)C(=O)COc2c(F)c(F)cc(F)c2F)no1` [Compound 114, 5-methyl-N-((S)-4-methyl-1-oxo-1-(((S)-3-oxo-1-((S)-2-oxopyrrolidin-3-yl)-4-(2,3,5,6-tetrafluorophenoxy)butan-2-yl)amino)pentan-2-yl)isoxazole-3-carboxamide] showed an EC50 [2] of 0.5 to 1 µM.

`CC(C)(C[C@H](NC(=O)C(=O)NC12CC(F)(C1)C2)C(=O)N[C@@H](C[C@@H]1CCNC1=O)C(=O)COC(F)(F)F)C(F)F` [Compound 564, N1-((S)-5,5-difluoro-4,4-dimethyl-1-oxo-1-(((S)-3-oxo-1-((S)-2-oxopyrrolidin-3-yl)-4-(trifluoromethoxy)butan-2-yl)amino)pentan-2-yl)-N2-(3-fluorobicyclo[1.1.1]-pentan-1-yl)oxalamide] showed an EC50 [1] of under 0.05 µM.

`CC1(C)[C@@H]2[C@@H](C(=O)N[C@@H](C[C@@H]3CCNC3=O)C(=O)COC(F)(F)F)N(C(=O)C34CC(C(F)F)(CO3)C4)C[C@@H]21` [Compound 322, (1R,2S,5S)-3-(4-(difluoromethyl)-2-oxabicyclo[2.1.1]-hexane-1-carbonyl)-6,6-dimethyl-N-((S)-3-oxo-1-((S)-2-oxopyrrolidin-3-yl)-4-(trifluoromethoxy)butan-2-yl)-3-azabicyclo-[3.1.0]hexane-2-carboxamide] gave an EC50 [2] of 0.05 to 0.2 µM.

`CC(C)C[C@H](NC(=O)C(=O)Nc1ccccc1C(C)C)C(=O)N[C@@H](C[C@@H]1CCNC1=O)C(=O)COc1c(F)c(F)cc(F)c1F` [Compound 86, Nl-(2-isopropylphenyl)-N2-((S)-4-methyl-1-oxo-1-(((S)-3-oxo-1-((S)-2-oxopyrrolidin-3-yl)-4-(2,3,5,6-tetrafluorophenoxy)butan-2-yl)amino)pentan-2-yl)oxalamide] was tested, and the EC50 [2] was under 0.05 µM.

For `O=C(NC(CC1CCOCC1)C(=O)N[C@@H](C[C@@H]1CCNC1=O)C(=O)COC(F)(F)F)C(=O)NC12CC(F)(C1)C2` (stereo partly drawn) [Compound 510, N1-(3-fluorobicyclo-[1.1.1]pentan-1-yl)-N2-(1-oxo-1-(((S)-3-oxo-1-((S)-2-oxopyrrolidin-3-yl)-4-(trifluoromethoxy)butan-2-yl)amino)-3-(tetrahydro-2H-pyran-4-yl)propan-2-yl)oxalamide], the EC50 [1] was 0.2 to 0.5 µM.

`COc1cccc2[nH]c(C(=O)N[C@@H](CC(C)C)C(=O)N[C@@H](C[C@@H]3CCNC3=O)C(=O)COc3c(F)cccc3F)cc12` [Compound 7, N-((S)-1-(((S)-4-(2,6-difluorophenoxy)-3-oxo-1-((S)-2-oxopyrrolidin-3-yl)butan-2-yl)amino)-4-methyl-1-oxopentan-2-yl)-4-methoxy-1H-indole-2-carboxamide] showed an EC50 (class symbols) of 0.2 to 0.5 µM.

With `CC(F)(F)CNC(=O)C(=O)N1C[C@H]2[C@@H]([C@H]1C(=O)N[C@@H](C[C@@H]1CCNC1=O)C(=O)COC(F)(F)F)C2(C)C` [Compound 484, (1R,2S,5S)-3-(2-((2,2-difluoropropyl)amino)-2-oxoacetyl)-6,6-dimethyl-N-((S)-3-oxo-1-((S)-2-oxopyrrolidin-3-yl)-4-(trifluoromethoxy)butan-2-yl)-3-azabicyclo[3.1.0]-hexane-2-carboxamide] the EC50 [1] was 0.05 to 0.2 µM.
